Series [1] relates to TEM-3 producing strain of K.pneumoniae. Briefly: MIC of cefotaxime, titration with Example 1. The series is classed as cell-based. The settings on record: K.pneumoniae TEM-3. How it is done:
(§1) The in-vitro synergistic activity of the compound of Example 1 above (i.e sodium (5R)-6-[(Z)-(2,3-dihydroimidazo[2,1-b]thiazol- 6-yl)methylene]penem-3-carboxylate) with cefotaxime was investigated.
The MIC (inimum inhibitory concentration) of cefotaxime against one TEM-3 producing strain of K.pneumoniae was measured.

Series [2] relates to Enterobacter cloacae (4593) producing high levels of derepressed class (AmpC) β-lactamase. Description: mouse intraperitoneal infection, cefotaxime CD50. The series is classed as in vivo, mice. On the procedure: (§2) In these studies, mice were infected intraperitoneally with a lethal challenge inoculum of strains of either Klebsiella pneumoniae (520), producing extended-spectrum TEM type ββ-lactamase, (TEM-3) or Enterobacter cloacae (4593) producing high levels of derepressed class (AmpC) ββ-lactamase. Virulence of all strains was enhanced by suspending the bacteria in hog gastric mucin prior to infection.
(§3) Mice were dosed subcutaneously at 1 and 5 hours post-infection, with either cefotaxime alone or coadministered with the ββ-lactamase inhibitor at 1 mg/kg or 5 mg/kg.
(§4) 1 CD50 (dose protecting 50% of animals from lethal infection) calculated from groups of 5 animals per test, subjected to a range of 4 dose levels (4-fold serial dilutions)
(§5) Efficacy was assessed by the number of animal surviving at 4 days after infection, and the total dose that protected 50% of treated animals (CD50 value) was calculated.

The test system of series [3] is Klebsiella pneumoniae (520), producing TEM-3 β-lactamase. Briefly: mouse intraperitoneal infection, cefotaxime CD50. It is filed as in vivo, mice. On the procedure: as §2, §3, §4, §5
The subject of series [4] is Escherichia coli (E96), producing TEM-1 β-lactamase. Description: mouse intraperitoneal infection, amoxycillin CD50. The series is classed as in vivo, mice. The settings on record: coadministration with Example 1 versus amoxycillin alone. On the procedure: In these studies, mice were infected intrapenitoneally with a lethal challenge inoculum of strains of Escherichia coli (E96), producing TEM-1 ββ-lactamase, for tests to protect amoxycillin. Virulence of all strains was enhanced by suspending the bacteria in hog gastric mucin prior to infection.
Mice were dosed subcutaneously at 1 and 5 hours post-infection, with either amoxycillin alone or coadministered with the ββ-lactamase inhibitor at 2 mg/kg.
as §5

The test system of series [5] is strain of Ent.cloacae producing high levels of Class 1 β-lactamases constitutively. Briefly: MIC of cefotaxime, titration with Example 1. The series is classed as cell-based. The settings on record: in presence of 1 μg/ml Example 1; Ent.cloacae high Class 1.
Series [6] relates to E. cloacae. Briefly: in vitro selection of ceftazidime-resistant cells in a growing population. It is filed as cell-based.
Series [7] deals with strain of Enterobacter producing extended spectrum β-lactamase enzymes. Description: in-vitro MIC of ceftazidime alone and with Example 1. Conditions: Enterobacter ESBL strain. The series is classed as cell-based. The text has this:
(§6) The in-vitro synergistic activity of the compound of Example 1 above (i.e sodium (5R)-6-[(Z)-(2,3-dihydroimidazo[2,1-b]thiazol-6-yl) methylene]penem-3-carboxylate) with ceftazidime was investigated.

In series [8] the test system is B. fragilis. The description is as above. The series is classed as cell-based.
Source text: as §6

Series [9] can be described thus: serum half life. Conditions: in vivo.
The test system of series [10] is strains of Enterobacteriaceae producing extended spectrum β-lactamases. Description: in-vitro synergy with cefotaxime. It is filed as cell-based. The settings on record: 1 μg/ml Example 1.
Source text: as §1

Series [11] has as its system B. fragilis. Description: in-vitro synergy with cefotaxime. It is filed as cell-based. The settings on record: 1 μg/ml Example 1.
Source text: as §1

Series [12] concerns E. coli P91. Description: in-vitro MIC of amoxycillin alone and with Example 1. The settings on record: alone; β-lactamase 2d. It is filed as cell-based.
The subject of series [13] is Ent. cloacae N1. The description is as above. It is filed as cell-based. Conditions: alone; β-lactamase 1 (inducible expression).
In series [14] the test system is S. aureus Russell. Described as above. Conditions: alone; β-lactamase 2a. It is filed as cell-based.
Series [15] relates to P. vulgaris C. The series is described as above. The series is classed as cell-based. Conditions: alone; β-lactamase 2e.
Series [16] deals with P. mirabilis C889. Described as above. The series is classed as cell-based. Conditions: alone; β-lactamase 2c.
The subject of series [17] is Ent. cloacae P99. Described as above. Conditions: alone; β-lactamase 1 (high constitutive expression). The series is classed as cell-based.
Series [18] concerns E. coli JT39. The series is described as above. The series is classed as cell-based. Conditions: alone; β-lactamase 2b (low expression).
Series [19] relates to JT4. The description is as above. The settings on record: alone; β-lactamase 2b (high expression). It is filed as cell-based, P. coli.
The mark [20] stands for this setting: in presence of 1 μg/ml Example 1.

Where “and” joins values, the source holds several entries; their conditions need not be identical. Equal values may be shown once. Where a name gives a salt, the structure may show the parent alone.

For the molecule `O=C([O-])C1=CS[C@@H]2/C(=C\c3cn4c(n3)SCC4)C(=O)N12.[Na+]` [Example 1, Sodium (5R)-6-[(Z)-(2,3-Dihydroimidazo[2,1-b]thiazol-6-yl) Methylene]-penem-3-carboxylate], the MIC of cefotaxime entry in [1] (Example 1 at concentrations as low as 0.25 μg/ml) is on record as “below 1 μg/ml”. In addition, the “protection of infected animals” value is on record as “consistent protection” in series [2] (cefotaxime plus Example 1 compared with cefotaxime alone, E. cloacae (4593)) and “consistent protection” in series [3] (cefotaxime plus Example 1 compared with cefotaxime alone, K.pneumoniae (520)). Further, the “effectiveness of amoxycillin in protecting animals” value in series [4] is reported as “markedly more effective”. Also, in series [5], the “cefotaxime MIC” value is recorded as “below 1 μg/ml”. In addition, the “rate of emergence of resistant isolates” value in [6] (ceftazidime at 0.5 MIC plus Example 1) is recorded as “reduced the rate of emergence of resistant isolates dramatically”. For the same molecule, in [6] (combination of ceftazidime and Example 1 versus ceftazidime alone), the “final level of resistance” value was “much lower than that observed with ceftazidime alone”. In addition, the MIC of ceftazidime result is given as “around 2 μg/ml” in [7] (setting [20]) and “around 4 μg/ml” in series [8] (setting [20]). In addition, the serum half life entry in series [9] was “advantageously long”. Further, the synergy with cefotaxime entry in series [10] and in series [11] was “Effective synergy” throughout.

On to `CO/N=C(\C(=O)N[C@@H]1C(=O)N2C(C(=O)O)=C(COC(C)=O)CS[C@H]12)c1csc(N)n1` [Cefotaxime], for which, in series [1] (Klebsiella pneumoniae, in the absence of Example 1), the MIC turned out to be 64 µg/mL. The “Cefotaxime CD50” value in series [2] (cefotaxime alone, s.c. at 1 and 5 h post-infection, E. cloacae 4593) was 240 mg/kg and 400 mg/kg; in series [3] (cefotaxime alone, s.c. at 1 and 5 h post-infection, K. pneumoniae), 54 mg/kg and 42 mg/kg.

`CC1(C)S[C@@H]2[C@H](NC(=O)[C@H](N)c3ccc(O)cc3)C(=O)N2[C@H]1C(=O)O` [Amoxycillin, 6-[D(−)-α-amino-p-hydroxypheny-acetamido]penicillanic acid]: the Amoxycillin MIC in series [12] was greater than 256 µg/mL; in series [13], greater than 256 µg/mL; in series [14], 128 µg/mL; in [15], 32 µg/mL; in [16], greater than 256 µg/mL; in series [17] it was greater than 256 µg/mL. In addition, the Amoxycillin MIC in series [18] and in series [19] was greater than 256 µg/mL in each case.

For the molecule `CC(C)(O/N=C(\C(=O)N[C@@H]1C(=O)N2C(C(=O)[O-])=C(C[n+]3ccccc3)CS[C@H]12)c1csc(N)n1)C(=O)O` [ceftazidime, [6R -[6α,7β(Z)]]-1-[[7-[[(2-amino-4-thiazolyl)[(1-carboxy-1-methylethoxy)imino]acetyl]amino]-2-carboxy-8-oxo-5-thia-1-azabicyclo[4.2.0]oct-2-en-3-yl]methyl]pyridinium hydroxide inner salt], the “selection of cells showing high-level resistance to ceftazidime” value in series [6] (ceftazidime alone at 0.5 MIC) is “rapidly selected”. For the same molecule, the MIC in [7] (ceftazidime alone) is roughly 7 µg/mL; in [8] (Bacteroides fragilis, ceftazidime alone), roughly 7 µg/mL.

Source of the values: patent US6472383B1, “Pharmaceutical formulations” (priority 1994, dated 2002).
